Entries after “also recorded” stand apart in the source; their conditions may differ.
Experiments:
[1] = Blood plasma concentration of HMB in piglets infused with HMB; type: in vivo, neonatal pigs; conditions: pig, intravenous
Procedure: (§1) Overnight fasted neonatal pigs (5-7 days old) were infused with HMB with 0, 20, 100, or 400 μmol·kg^−1·hr^−1 HMB. Blood plasma concentrations of the following circulating substrates were measured. HMB was measured using gas chromatography per the method set forth in: Nissen, Steven (1990). Analysis of β-Hydroxy-β-methyl Butyrate in Plasma by Gas […] Chromatography and Mass Spectrometry Analytical Biochemistry 188, 17-19.

[2] = system: protein synthesis in skeletal muscles; assay: Fractional rate of protein synthesis in skeletal muscles of HMB-infused piglets; type: in vivo, neonatal pigs
Procedure: as §1
(§2) At the end of the infusion, the piglets were sacrificed and the fractional protein synthesis rates were measured by measuring ^3H incorporation into protein fractions after a flooding dose of L[4-^3H]phenylalanine using the method set forth in Garlick P. J. (1980). A rapid and convenient technique for measuring the rate of protein synthesis in tissues by injection of [3H]Phenylalanine Biochem J 192:719-723. Activation of translation initiation was measured in the stomach, duodenum, jejunum, colon, pancreas, kidney, brain and skin. The abundance of intracellular proteins involved in signaling of protein synthesis and in processes related to protein degradation was measured in tissue homogenates by immunoblotting using commercially available antibodies.

[3] = system: protein synthesis in the lung; assay: Fractional rate of protein synthesis in the lung of HMB-infused piglets; type: in vivo, neonatal pigs; conditions: infusion rate of 20 μmol·kg^−1·hour^−1 HMB for one hour
Procedure: as §1, §2

[4] = system: protein synthesis in the spleen; assay: Fractional rate of protein synthesis in the spleen of HMB-infused piglets; type: in vivo, neonatal pigs; conditions: infusion rate of 20 μmol·kg^−1·hour^−1 HMB for one hour
Procedure: as §1, §2

[5] = system: protein synthesis in longissimus dorsi, gastrocnemius, soleus, diaphragm, duodenum and brain; assay: Comparison of protein synthesis rates after infusion of HMB or leucine; type: in vivo, neonatal pigs; conditions: HMB 20, 100 or 400 μmol kg^−1 h^−1 vs leucine 400 μmol·kg^−1·hour^−1
Procedure: as §1, §2

S6K1 = assay: Phosphorylation of S6K1 in muscles (immunoblotting); type: in vivo, neonatal pigs
Procedure: as §1, §2
The phosphorylation of S6K1 is an indicator of mTORC1 signaling to translation.

4EBP1 = assay: Phosphorylation of 4EBP1 in muscles (immunoblotting); type: in vivo, neonatal pigs
Procedure: as §1, §2
The phosphorylation of 4EBP1 is an indicator of mTORC1 signaling to translation.

elF4E·elF4G complex = assay: Formation of the active elF4E·elF4G complex in muscles; type: in vivo, neonatal pigs
elF2α = assay: Phosphorylation of elF2α in muscles; type: in vivo, neonatal pigs
Procedure: as §1, §2
The formation of phosphorylation of elF2α regulates tRNA-ribosome binding.

eEF2 = assay: Phosphorylation of eEF2 in muscles; type: in vivo, neonatal pigs
Procedure: as §1, §2
The formation of phosphorylation of eEF2 regulates […].

Atrogin-1 = assay: Expression of Atrogin-1 in muscles; type: in vivo, neonatal pigs
Procedure: as §1, §2
Atrogin-1 is a muscle-specific ubiquitin ligase.

MURF1 = assay: Expression of MURF1 in muscles; type: in vivo, neonatal pigs
Procedure: as §1, §2
MURF1 is a muscle-specific ubiquitin ligase.

LC3-II/LC3-I = assay: Ratio of LC3-II/LC3-I in muscles; type: in vivo, neonatal pigs
Procedure: as §1, §2
The ratio of LC3-II/LC3-I is an indicator of autophagy/lysosomal protein degradation.

mTORC1 = mTORC1 signaling to translation (overall analysis); type: in vivo, neonatal pigs; conditions: overall analysis of the piglet data
Procedure: as §1, §2

[6] = system: markers of protein degradation; assay: Markers of protein degradation (overall analysis); type: in vivo, neonatal pigs; conditions: overall analysis of the piglet data
Procedure: as §1, §2

amino acid transporters = assay: Level of amino acid transporters; type: in vivo, neonatal pigs; conditions: overall analysis of the piglet data
Procedure: as §2

[7] = system: protein degradation in the muscles of adults; conditions: literature (Smith 2004, 2005); cited from earlier work
[8] = 20 μmol·kg^−1·hour^−1 HMB for one hour, diaphragm
[9] = 20 μmol·kg^−1·hour^−1 HMB for one hour, longissimus dorsi, gastrocnemius and soleus
[10] = 100 μmol·kg^−1·hour^−1 HMB for one hour, longissimus dorsi, gastrocnemius and soleus
[11] = 100 μmol·kg^−1·hour^−1 HMB for one hour, diaphragm
[12] = 20 μmol·kg^−1·hour^−1 HMB for one hour
[13] = 100 μmol·kg^−1·hour^−1 HMB for one hour

CC(C)(O)CC(=O)O [HMB, beta-hydroxy-beta-methylbutyric acid]
concentration at 1 h ([1]; piglets infused with 20 μmol·kg^−1·hr^−1 HMB): 90 µM | concentration at 1 h ([1]; piglets infused with 100 μmol·kg^−1·hr^−1 HMB): 316 µM | concentration at 1 h ([1]; piglets infused with 400 μmol·kg^−1·hr^−1 HMB): 1400 µM | fractional rates of protein synthesis in the skeletal muscles ([2]; 20 μmol·kg^−1·hour^−1 HMB, longissimus dorsi, gastrocnemius, soleus and diaphragm, P<0.05): increased | protein synthesis in the gastrocnemius, soleus and diaphragm muscles ([2]; 100 μmol·kg^−1·hour^−1 HMB): not significantly | protein synthesis in the longissimus dorsi muscle ([2]; 100 μmol·kg^−1·hour^−1 HMB, P<0.05): increased | protein synthesis in the skeletal muscles ([2]; 400 μmol·kg^−1·hour^−1 HMB): no significant effect | impact on protein synthesis in 4 muscles (fast twitch, slow twitch, voluntary and involuntary) ([2]; highest dose, 400 μmol kg^−1 h^−1, compared with other doses): least impact | impact on protein synthesis in 4 muscles (fast twitch, slow twitch, voluntary and involuntary) ([2]; lowest dose of HMB 20 μmol kg^−1 h^−1, compared with other doses): greatest impact | protein synthesis in the lung [3]: increase | protein synthesis in the spleen [4]: increase | effectiveness in increasing protein synthesis compared with leucine [5]: equal to or more effective; also recorded: as effective as leucine | phosphorylation of S6K1 (S6K1; [8]): increased | phosphorylation of S6K1 (S6K1; [9]): increased | phosphorylation of S6K1 (S6K1; [10]): increased | phosphorylation of 4EBP1 (4EBP1; [8]): increased | phosphorylation of 4EBP1 (4EBP1; [9]): increased | phosphorylation of 4EBP1 (4EBP1; [11]): not | phosphorylation of 4EBP1 (4EBP1; [10]): increased | formation of active eIF4E·eIF4G complex (elF4E·elF4G complex; [8]): increased | formation of active eIF4E·eIF4G complex (elF4E·elF4G complex; [9]): increased | formation of active eIF4E·eIF4G complex (elF4E·elF4G complex; [11]): not | formation of active eIF4E·eIF4G complex (elF4E·elF4G complex; [10]): increased | phosphorylation of elF2α (elF2α; [12]): did not affect | phosphorylation of elF2α (elF2α; [13]): did not affect | phosphorylation of eEF2 (eEF2; [12]): did not affect | phosphorylation of eEF2 (eEF2; [13]): did not affect | expression of Atrogin-1 (Atrogin-1; [12]): did not affect | expression of Atrogin-1 (Atrogin-1; [13]): did not affect | expression of MURF1 (MURF1; [12]): did not affect | expression of MURF1 (MURF1; [13]): did not affect | ratio of LC3-II/LC3-I (LC3-II/LC3-I; [12]): did not affect | ratio of LC3-II/LC3-I (LC3-II/LC3-I; [13]): did not affect | activation of protein synthesis via mTORC1 (mTORC1): activated protein synthesis by inducing mTORC1 | markers of protein degradation [6]: did not affect | level of amino acid transporters (amino acid transporters): did not affect | protein degradation in the muscles of adults [7]: attenuates protein degradation
